Blank lines part the entries; values can stand above or below the molecule they belong to.
What was measured:
[1] = system: CREB S133 phosphorylation
Method: The cells were mechanically dissociated by triturating with a fine polished glass pipette, diluted in Neurobasal media (Invitrogen) supplemented with 10% horse serum and 10 mM HEPES (pH7.2), and plated in a dish coated with poly-D-lysine (Sigma) and laminin (Sigma). Cultured DIV12-13 mouse neurons were lysed for 30 min at 4° C. with gentle shaking in the extraction buffer (50 mM Tris pH8.0, 50 mM NaCl, 1.0% NP-40, 0.5% sodium deoxycholate, 0.1% SDS, 1 mM EDTA, 1 mM EGTA, 1 mM NaF, 20 mM Na4P2O7, 2 mM Na3VO4, 10% glycerol) supplemented with protease inhibitor cocktail (Sigma). Cell lysates were centrifuged for 15 min at 12,000 g at 4° C. and the supernatants were applied to ELISA using the Immunoassay kits for total CREB and […] phospho-CREB (Biosource) following the manufacturer's instruction.

[2] = system: dopamine-mediated cAMP signaling; assay: cAMP accumulation in cultured primary striatal neurons from wild type and Par-4ΔLZ embryos (cAMP EIA); format: cell-based, mouse; details: for upregulation of cAMP signaling comparable to that with dopamine: Par-4ΔLZ striatal neurons
Method: DIV 11-14 neurons cultured in 24 well-plates were replaced with neurobasal media supplemented with 10 mM HEPES (pH7.4) containing drugs indicated for 50 min at room temperature, cells were lysed in 200 μl of 0.1M HCl solution for 15 min with gentle shaking and spun in the microcentrifuge tubes. cAMP concentration of the supernatant was measured using the cAMP-Enzyme Immunoassay Kit (Assay Designs) following manufacture's instructions. Concentrations of cAMP were normalized using protein concentrations measured by Biorad Protein Assay System (Bio-rad).

[3] = system: Par-4 nuclear translocation; assay: Par-4 nuclear translocation in cultured striatal neurons; format: cell-based; details: activation of glutamate receptors
[4] = system: Par-4/D2DR association; assay: Co-immunoprecipitation of Par-4 with D2DR-EGFP in the stable D2DR-EGFP cell line; format: cell-based, human
[5] = molecular target: GST-D2i3 (GST fusion of the third intracellular loop of the long isoform of human D2DR, amino acid residues 212-373) (human); assay: in vitro GST pull-down with purified proteins
[6] = molecular target: T1, D2i3 (third intracellular loop of the long isoform of human D2DR) (Homo sapiens, UniProt P14416); assay: In vitro binding assay with purified GST-D2i3 and Par-4LZ proteins; details: in the presence of Ca2+
T1 construct: A long isoform of D2i3 (amino acid 212-373) was amplified from a human D2DR cDNA clone; made in house; host or cells: E. coli BL21
T1 sequence (P14416 212-241): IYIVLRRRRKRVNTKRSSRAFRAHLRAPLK
Method: (§1) pPC97-D2i3 and pPC86-Par-4LZ plasmids were digested with SalI and NotI and cloned into pGEX4T-2 (Amersham-Pharmacia) using the same restriction sites to make GST-D2i3 and GST-Par-4LZ fusion proteins, respectively. GST-fusion proteins were expressed in BL21 bacteria and purified following manufacturer's instruction. For the in vitro binding assay, 500 nmoles of GST-Par-4LZ fusion protein in PBS was digested with 0.2 NIH units of thrombin (Sigma) for 2 hours at room temperature and the reaction was stopped by adding PMSF (10 μM, Sigma) and incubated for an additional 1 hour at 4° C. The GST portion of the digested protein was removed by glutathione sepharose (Amersham-Pharmacia). The supernatant was equilibrated to final 1× binding buffer (200 mM NaCl, 0.2% Triton X-100, 0.2mg/ml BSA and 50 mM Tris, pH 7.5). Binding reaction was initiated by adding 500 nmoles of GST-D2i3 (50 nM of GST-D2i3^221-241 in the competition assay) to Par-4LZ protein in the 1× binding buffer and incubated for 2-3 hours at 4° C. GST-D2i3 was precipitated using 100 μl of 10% glutathione sepharose in 1× binding buffer. The precipitate was washed 3 times with 1× binding buffer and resuspended in 2× SDS sample loading buffer.

[7] = molecular target: T2, D2i3 (third intracellular loop of the long isoform of human D2DR) (Homo sapiens, UniProt P14416); assay: as above; details: equimolar amount of GST-D2i3 protein
T2 construct: A long isoform of D2i3 (amino acid 212-373) was amplified from a human D2DR cDNA clone; made in house; host or cells: E. coli BL21
T2 sequence (P14416 212-373): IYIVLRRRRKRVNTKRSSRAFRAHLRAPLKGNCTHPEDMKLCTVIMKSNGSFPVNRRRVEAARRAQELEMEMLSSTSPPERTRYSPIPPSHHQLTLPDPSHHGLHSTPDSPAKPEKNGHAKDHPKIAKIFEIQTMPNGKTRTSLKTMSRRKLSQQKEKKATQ
Method: as §1

Molecule: NCCc1ccc(O)c(O)c1 [dopamine]
- dopamine-induced downregulation of CREB S133 phosphorylation ([1]; Par-4ΔLZ neurons): not observed
- CREB S133 phosphorylation ([1]; wild type neurons, dose-dependent): significantly decreased
- cAMP levels ([2]; Par-4ΔLZ mutant neurons, 1-10 μM of dopamine): markedly elevated

Molecule: N[C@@H](CCC(=O)O)C(=O)O [glutamate]
- nuclear translocation of Par-4 [3]: induce nuclear translocation

Molecule: C[C@H](CCC(=O)O)C[C@H](C)C[C@H](C)C(=O)/C=C(\O)[C@H](C)C[C@H](C)C/C=C/[C@@H](C)[C@@H](O)[C@@H](C)[C@@H](O)C[C@@H]1CC[C@@](C)([C@H]2CC[C@@](C)([C@@H](C)O)O2)O1 [ionomycin]
- co-immunoprecipitation of Par-4 with D2DR-EGFP [4]: significantly reduced

Molecule: NC[C@H](O)c1ccc(O)c(O)c1 [norepinephrine]
- upregulation of cAMP signaling comparable to that with dopamine [2]: not detected

Molecule: NCCc1c[nH]c2ccc(O)cc12 [serotonin]
- upregulation of cAMP signaling comparable to that with dopamine [2]: not detected

Molecule: CCN1CCCC1CNC(=O)c1cc(S(N)(=O)=O)ccc1OC (stereo not shown) [sulpiride]
- cAMP response to dopamine ([2]; Par-4ΔLZ neurons, co-treated with dopamine): no such effect
- cAMP response to dopamine ([2]; wild type neurons, co-treated with 1-10 μM dopamine): enhanced

Molecule: C/C=C(/C)C(=O)O[C@H]1C(C)=C2[C@H]([C@@H]1OC(=O)CCCCCCC)[C@@](C)(OC(C)=O)C[C@H](OC(=O)CCC)[C@@]1(O)[C@H]2OC(=O)[C@@]1(C)O [thapsigargin]
- co-immunoprecipitation of Par-4 with D2DR-EGFP [4]: significantly reduced

- percent of total protein pulled down [5]: 50%
Molecule: Par-4LZ protein (purified; human Par-4 amino acid residues 245-342, leucine zipper domain)

- interaction of Par-4LZ with D2i3 in the presence of increasing calmodulin levels [6]: effectively interfered
Molecule: calmodulin

- fraction of total Par-4LZ protein pulled down by GST-D2i3 [7]: Approximately 50%
B1: Par-4LZ: human Par-4 amino acid residues 245-342 that harbor the leucine zipper domain (protein)
chain: DRSGFPRYNRDANVSGTLVSSSTLEKKIEDLEKEVVRERQENLRLVRLMQDKEEMIGKLKEEIDLLNRDLDDIEDENEQLKQENKTLLKVVGQLTR

From patent publication US20090111733A1, “PAR-4 RELATED METHODS AND COMPOSITIONS” (President and Fellows of Harvard College, priority 2006, published 2009)
